# “Also recorded” adds a separate entry of the source. Marks after values point to notes of the source that are not given here.
# What was measured:
# human sebaceous glands [1] = assay: Total lipid (sebum) content of micro-dissected ex vivo human sebaceous glands in organ culture, lipids normalized on proteins; type: cell-based; conditions: for Effect on total lipid / sebum content of sebaceous glands, in words: day 6; for Reduction of lipids at day 6 versus untreated; Total lipid reduction: Example 4; for Reduction of lipids at day 6 versus untreated; Lipid reduction: Example 8
# Protocol: Organ culture of human sebaceous glands micro-dissected from human skin explants was performed to evaluate the modulatory activity of Tetraselmis suecica extract prepared according to the description given in Example 1 on the sebum level. The extract is employed in the dried form.
# (§1) After removal of the epidermis of the full thickness skin sample, the sebaceous glands were carefully removed using micro-scissors and scalpel. The micro-dissected sebaceous glands were then pooled in groups of 8 and cultured up to day 6 in a 24 well plate immersed in 500 μl of modified Williams'E medium. After 24 hours of acclimation the culture medium was changed and substituted with the medium containing the extract to be tested. The medium was renewed at day 3 and 5 of culture. At day 6 the glands were collected and used for the quantification of lipids and proteins.
# To do so, each sebaceous glands group was homogenized in 100 μl of isopropyl alcohol to extract lipids and let the proteins undissolved. After centrifugation the supernatant containing the extracted sebum was collected and analyzed. The remaining pellet was dried using a vacuum dry evaporator and then minced in presence of 50 μl of protein lysis buffer. After an appropriate incubation time, this extractive mixture was centrifuged, and the supernatant was collected and analyzed. The lipids dissolved in isopropyl alcohol and the proteins dissolved in the lysis buffer were quantified by infrared spectroscopy using a Direct Detect IR Spectrometer (Millipore). The total lipid amount was obtained by normalizing the quantified lipids upon the quantified proteins (i.e. mg of lipids/mg of proteins). The amounts of normalized lipids, i.e. the sebum produced by each group of sebaceous glands, obtained from the treated groups was compared to that of the untreated control group and the modulatory activity was calculated in percentage. As positive control, a 5 μM Capsaicin treatment was included in the experimental design. Capsaicin is an active component of chili peppers suitable to inhibit sebogenesis [T6th et al., J. Invest. Derm. (2009), 129: 329-339]. For statistical analysis, differences among groups were evaluated by one-way anova with permutation test followed by Dunnett's permutation test.
# To evaluate donor responsiveness and interindividual variability the extract was tested on sebaceous glands obtained from skin samples of three different donors.
# The Organ culture of human sebaceous glands micro-dissected from human skin explants was performed to evaluate the modulatory activity of mannitol on the sebum level.
# as §1, with “sample” for “extract”
# To do so, each sebaceous glands group was homogenized in 100 μl of isopropyl alcohol to extract lipids and let the proteins undissolved. After centrifugation the supernatant containing the extracted sebum was collected and analyzed. The remaining pellet was dried using a vacuum dry evaporator and then minced in presence of 50 μl of protein lysis buffer. After an appropriate incubation time, this extractive mixture was centrifuged, and the supernatant was collected and analyzed. The lipids dissolved in isopropyl alcohol and the proteins dissolved in the lysis buffer were quantified by infrared spectroscopy using a Direct Detect IR Spectrometer (Millipore). The total lipid amount was obtained by normalizing the quantified lipids upon the quantified proteins (i.e. mg of lipids/mg of proteins). […]
# human sebaceous glands [2] = assay: Resazurin viability test of micro-dissected human sebaceous glands, day 6 versus day 1; type: cell-based
# Protocol: To better understand the response to the extract, a viability test was performed in parallel at day 1 and day 6 of organ culture. Resazurin was added to the wells (1:11) and let incubate for 2 hours. At the end of the incubation an aliquot of the medium was read with a fluorometer (excitation: 560 nm, emission: 590 nm). The medium was then replaced with normal medium for 2 hours in order to eliminate residual resazurin. After this the medium was replaced again with medium containing the test samples. The viability in each well was measured as the difference in percentage between day 6 and day 1.
# CLDN7 [Claudin 7] = assay: Gene expression by RT-qPCR in nHEK keratinocytes; type: cell-based, human
# Protocol: Neonatale humane epidermal keratinocytes (nHEK) were cultivated in EpiLife medium (Gibco) including HKGS-Kit (Gibco) at 5% CO2 at 37° C. according to the supplier instructions. […] Genomic target expression levels in extract treated cells were measured by RT-qPCR comparing to medium treatment. RNA isolation took place using RNeasy® Mini Kit, Qiagen. Total RNA concentrations were measured using μCuvetteG 1.0 and BioPhotometer, Eppendorf by measuring the absorption at 260 nm. Purity control values, like […]/280 and E 260/230 were calculated simultaneously. Reverse transcription was done using high capacity RNA-to-cDNA Kit, Applied Biosystems, according to the supplier instructions. Samples were treated in the PCR Thermocycler, Biometra. For the fast real-time PCR, cDNA was diluted with RNase-free water and TaqManTM Fast Universal PCR Master Mix, Applied biosystems. Quantitaive Real-Time PCR was done using StepOne Plus Fast Real Time PCR Instrument, Applied biosystems. Analysis was done with StepOne-Software and 2-ΔCT Method (normalized to endogenous control HTRP1 expression).
# CGN [Cingulin] = assay: Gene expression by RT-qPCR in nHEK keratinocytes; type: cell-based, human; conditions: 0.002%
# Protocol: (§2) Neonatale humane epidermal keratinocytes (nHEK) were cultivated in EpiLife medium (Gibco) including HKGS-Kit (Gibco) at 5% CO2 at 37° C. according to the supplier instructions.
# (§3) […] Genomic target expression levels in extract treated cells were measured by RT-qPCR comparing to medium treatment.
# (§4) RNA isolation took place using RNeasy® Mini Kit, Qiagen. Total RNA concentrations were measured using μCuvetteG 1.0 and BioPhotometer, Eppendorf by measuring the absorption at 260 nm. Purity control values, like E260/280 and E 260/230 were calculated simultaneously. Reverse transcription was done using high capacity RNA-to-cDNA Kit, Applied Biosystems, according to the supplier instructions. Samples were treated in the PCR Thermocycler, Biometra.
# (§5) For the fast real-time PCR, cDNA was diluted with RNase-free water and TaqMan™ Fast Universal PCR Master Mix, Applied biosystems. Quantitaive Real-Time PCR was done using StepOne Plus Fast Real Time PCR Instrument, Applied biosystems. Analysis was done with StepOne-Software and 2-ΔCT Method (normalized to endogenous control HTRP1 expression).
# (§6) For upregulations RQ values ≥2.0 and for downregulations RQ values <0.5 are considered to be relevant.
# CLDN1 [Claudin 1] = assay: Gene expression by RT-qPCR in nHEK keratinocytes; type: cell-based, human; conditions: 0.002%
# Protocol: as §2, §3, §4, §5, §6
# OCLN [Occludin] = assay: Gene expression by RT-qPCR in nHEK keratinocytes; type: cell-based, human; conditions: 0.002%
# Protocol: as §2, §3, §4, §5, §6
# [3] = Water solubility (statement); type: physicochemical
SMILES,"Reduction of lipids at day 6 versus untreated (human sebaceous glands [1]; Example 7, 0.05 ppm) [%]","Reduction of lipids at day 6 versus untreated (human sebaceous glands [1]; Example 7, 0.5 ppm) [%]","Effect on total lipid / sebum content of sebaceous glands, in words (human sebaceous glands [1]; ex vivo human sebaceous glands)","Viability (human sebaceous glands [2]; Example 7, 0.05 ppm) [%]","Viability (human sebaceous glands [2]; Example 7, 0.5 ppm) [%]","Reduction of lipids at day 6 versus untreated (human sebaceous glands [1]; Example 6, 0.05 ppm) [%]","Reduction of lipids at day 6 versus untreated (human sebaceous glands [1]; Example 6, 0.5 ppm) [%]","Viability (human sebaceous glands [2]; Example 6, 0.05 ppm) [%]","Viability (human sebaceous glands [2]; Example 6, 0.5 ppm) [%]",also measured
"OC[C@@H](O)[C@@H](O[C@H]1O[C@H](CO)[C@@H](O)[C@H](O)[C@H]1O)[C@H](O)[C@@H](O)CO [maltitol, Maltitol]",−44,−39,significantly reduce the lipid content,79,80,–,–,–,–,–
"OC[C@@H](O)[C@H](O)CO [threitol, D-Threitol]",−31,−47,significantly reduce the lipid content,84,82,–,–,–,–,–
"COc1cc(CNC(=O)CCCC/C=C/C(C)C)ccc1O [Capsaicin, reference compound]",–,–,–,–,–,–,–,–,–,"Reduction of lipids at day 6 versus untreated; Total lipid reduction (human sebaceous glands [1]; 5 μM (1.5 ppm)): −25%; Reduction of lipids at day 6 versus untreated (human sebaceous glands [1]; Example 6, 5 μM (1.5 ppm)): −21%; Reduction of lipids at day 6 versus untreated (human sebaceous glands [1]; Example 7, 5 μM (1.5 ppm)): −20%; Reduction of lipids at day 6 versus untreated; Lipid reduction (human sebaceous glands [1]; 5 μM (1.5 ppm)): 13* %; Viability (human sebaceous glands [2]; Example 3, Donor 1, 5 μM (1.5 ppm)): 92%; Viability (human sebaceous glands [2]; Example 3, Donor 2, 5 μM (1.5 ppm)): 99%; Viability (human sebaceous glands [2]; Example 3, Donor 3, 5 μM (1.5 ppm)): 85%; Viability (human sebaceous glands [2]; Example 4, 5 μM (1.5 ppm)): 82%; Viability (human sebaceous glands [2]; Example 6, 5 μM (1.5 ppm)): 89%; Viability (human sebaceous glands [2]; Example 7, 5 μM (1.5 ppm)): 91%; Viability (human sebaceous glands [2]; Example 8, 5 μM (1.5 ppm)): 95%"
"OC[C@@H](O)[C@@H](O[C@@H]1O[C@H](CO)[C@H](O)[C@H](O)[C@H]1O)[C@H](O)[C@@H](O)CO [lactitol, Lactitol]",−22,−22,significantly reduce the lipid content,99,100,–,–,–,–,–
"OC[C@@H](O)[C@@H](O)[C@H](O)[C@@H](O)CO [sorbitol, D-Sorbitol]",–,–,significantly reduces the lipid content,–,–,−16,−40,80,78,"Reduction of lipids at day 6 versus untreated; Lipid reduction (human sebaceous glands [1]; 0.5 ppm): 11* %; Effect on total lipid / sebum content of sebaceous glands, in words (human sebaceous glands [1]; ex vivo human sebaceous glands, listed as Sorbitol): exhibited efficacy in the expected range when compared to capsaicin; Viability (human sebaceous glands [2]; Example 8, 0.5 ppm): 95%"
"OC[C@@H](O)[C@H](O)[C@@H](O)CO [xylitol, Xylitol]",–,–,significantly reduces the lipid content,–,–,−23,−46,86,80,–
"OC[C@@H](O)[C@@H](O)[C@H](O)[C@H](O)CO [mannitol, Mannitol]",–,–,significantly reduces the lipid content; also recorded: significantly reduced the sebum content,–,–,–,–,–,–,"Reduction of lipids at day 6 versus untreated; Total lipid reduction (human sebaceous glands [1]; 0.03 ppm): −17%; Sebum/lipid reducing efficacy compared with positive control 5 μM capsaicin, in words (human sebaceous glands [1]; ex vivo human sebaceous glands): less effectively than 5 μM capsaicin; Viability (human sebaceous glands [2]; Example 4, 0.03 ppm): 81%; claudin 7 gene regulation, in words (CLDN7 [Claudin 7]): upregulate; RQ value (CLDN7 [Claudin 7]; 0.002%): 2.0; RQ value (CGN [Cingulin]): 1.0; RQ value (CLDN1 [Claudin 1]): 0.5; RQ value (OCLN [Occludin]): 1.0"
"NC(=O)c1cccnc1 [niacinamide, Niacinamide, reference compound]",–,–,did not show a relevant lipid reducing activity,–,–,–,–,–,–,"Reduction of lipids at day 6 versus untreated; Lipid reduction (human sebaceous glands [1]; 0.5 ppm): 2%; Viability (human sebaceous glands [2]; Example 8, 0.5 ppm): 100%; water solubility, in words [3]: readily water soluble"
"OC[C@@H](O)[C@@H](O)CO [erythritol, meso-Erythritol]",–,–,significantly reduces the lipid content,–,–,−26,−36,82,77,–
"O[C@H]1[C@H](O)[C@@H](O)[C@H](O)[C@@H](O)[C@H]1O [inositol, myo-Inosiitol]",−32,−10,significantly reduce the lipid content,91,97,–,–,–,–,–

# Source: patent US11786570B2, “Dermatological product” (SYMRISE AG, priority 2018, dated 2023)
